Data on 1 compound can be found in patent US8642608B2, “Quinazoline derivatives as VEGF inhibitors” (AstraZeneca AB, priority 1999, dated 2014).

In experiment [1] the test system is CaLu-6 tumour xenografts. The experiment is described as follows: In vivo solid tumour disease model (c). More on the design: species or system female athymic Swiss nu/nu mice. The note with it: 50 mg/kg, orally once daily, CaLu-6 xenografts in mice; p<0.001 (Mann-Whitney Rank Sum Test). Here is the method:
(c) In Vivo Solid Tumour Disease Model
This test measures the capacity of compounds to inhibit solid tumour growth.
CaLu-6 tumour xenografts were established in the flank of female athymic Swiss nu/nu mice, by subcutaneous injection of 1×10^6 CaLu-6 cells/mouse in 100 μl of a 50% (v/v) solution of Matrigel in serum free culture medium. […] Tumours were measured using vernier calipers and volumes were calculated as: (l×w)×√(1×w)×(π/6), where 1 is the longest diameter and w the diameter perpendicular to the longest diameter. Test compounds were administered orally once daily for a minimum of 21 days, and control animals received compound diluent. Tumours were measured twice weekly. The level of growth inhibition was calculated by comparison of the mean tumour volume of the control group versus the treatment group, and statistical significance determined using a Students' t-test and/or a Mann-Whitney Rank Sum Test. The inhibitory effect of compound treatment was considered significant when p<0.05.

Experiment [2] has as its system human umbilical vein endothelial cells (HUVEC), basal. In words: In vitro HUVEC proliferation assay (b), basal. Type of experiment: cell-based. The note with it: test (b).
Experiment [3] relates to VEGF-stimulated human umbilical vein endothelial cells (HUVEC). The experiment is described as follows: In vitro HUVEC proliferation assay (b), VEGF-stimulated. The class given is cell-based. The note with it: 96 h, test (b), VEGF 3 ng/ml, 4 days, tritiated-thymidine incorporation. Here is the method: (§1) (b) In Vitro HUVEC Proliferation Assay
(§2) HUVEC cells were isolated in MCDB 131 (Gibco BRL)+7.5% v/v foetal calf serum (FCS) and were plated out (at passage 2 to 8), in MCDB 131+2% v/v FCS+3 μg/ml heparin+1 μg/ml hydrocortisone, at a concentration of 1000 cells/well in 96 well plates. After a minimum of 4 hours they were dosed with the appropriate growth factor (i.e. VEGF 3 ng/ml, EGF 3 ng/ml or b-FGF 0.3 ng/ml) and compound. The cultures were then incubated for 4 days at 37° C. with 7.5% carbon dioxide. On day 4 the cultures were pulsed with 1 μCi/well of tritiated-thymidine (Amersham product TRA 61) and incubated for 4 hours. The cells were harvested using a 96-well plate harvester (Tomtek) and then assayed for incorporation of tritium with a Beta plate counter. Incorporation of radioactivity into cells, expressed as cpm, was used to measure inhibition of growth factor-stimulated cell proliferation by compounds.
On the technique in general: Incorporation of labelled thymidine or its analogues reports DNA synthesis.

The test system of experiment [4] is EGF-stimulated human umbilical vein endothelial cells (HUVEC). In words: In vitro HUVEC proliferation assay (b), EGF-stimulated. The note with it: 96 h, test (b), EGF 3 ng/ml, 4 days, tritiated-thymidine incorporation. Type of experiment: cell-based. Here is the method:
as §1, §2

Experiment [5] concerns femoral epiphyseal growth plates of the distal femur and proximal tibia. The experiment is described as follows: 14 day toxicity test in rat (d). Type of experiment: in vivo, Alderley Park rats (Wistar derived). The note with it: 100 mg/kg/day, oral gavage, 14 days, female rats; p<0.001 (one-tailed Students' t-test). The source says:
The toxicological profile of compounds of the present invention may be assessed, for example using a rat 14 day study as described hereinafter.
(d) 14 Day Toxicity Test in Rat
This test measures the activity of compounds in increasing the zone of hypertrophy in the femoral epiphyseal growth plates of the distal femur and proximal tibia, and allows assessment of histopathological changes in other tissues.
A. Preclinical Safety Evaluation of rhuMAbVEGF, an antiangiogenic humanised monoclonal antibody, Tox. Path., 27: 78-86, 1999).
Compounds were initially formulated by suspension in a 1% (v/v) solution of polyoxyethylene (20) sorbitan mono-oleate in deionised water, by ball-milling at 4° C. overnight (at least 15 hours). Compounds were re-suspended by agitation immediately prior to dosing. […] The femoral epiphyseal growth plate areas of the distal femur and proximal tibia were measured in sections of femur and tibia using morphometric image analysis. The increase in the zone of hypertrophy was determined by comparison of the mean epiphyseal growth plate area of the control group versus the treatment group, and statistical significance determined using a one-tailed Students' t-test. […]

As for `COc1cc2c(Nc3ccc(Br)cc3F)ncnc2cc1OCC1CCN(C)CC1` [Example 2, 4-(4-bromo-2-fluoroanilino)-6-methoxy-7-(1-methylpiperidin-4-ylmethoxy)quinazoline], in experiment [1], the “inhibition of tumour growth” value is given as 78%. Besides, the figures for the IC50 in experiment [2], in experiment [3] and in experiment [4] were over 3000 nM, 60 nM and 170 nM, respectively. Besides, the “increase in epiphyseal growth plate hypertrophy” value in experiment [5] is on record as 75%.
